Experimental data: article PMC5218480 (PLoS ONE, 2017)

Tested on: MV-4-11 cells
Experiment: Gene expression microarray analysis (Affymetrix PrimeView) and GSEA
Assay type: cell-based, human
Design: RFU PODN (11730768_x_at) / Fold change /veh PODN (11730768_x_at) / RFU LINC00158 (11744669_a_at) / Fold change /veh LINC00158 (11744669_a_at) / RFU DUSP10 (11751237_a_at) / Fold change /veh DUSP10 (11751237_a_at) / RFU ID3 (11757404_x_at) / Fold change /veh ID3 (11757404_x_at) / RFU PLEKHG5 (11737974_s_at) / Fold change /veh PLEKHG5 (11737974_s_at) / RFU LRRC4B (11730491_at) / Fold change /veh LRRC4B (11730491_at) / RFU GIMAP4 (11747438_a_at) / Fold change /veh GIMAP4 (11747438_a_at) / RFU KRT8 (11758183_x_at) / Fold change /veh KRT8 (11758183_x_at) / RFU CNN1 (11734310_a_at) / Fold change /veh CNN1 (11734310_a_at) / RFU VPS37D (11726825_at) / Fold change /veh VPS37D (11726825_at) / RFU C10orf10 (11716522_x_at) / Fold change /veh C10orf10 (11716522_x_at) / RFU KIR2DL2 /// KIR2DL4 /// KIR2DL5A /// KIR2DL5B /// KIR2DS1 /// KIR2DS2 /// KIR2DS3 /// KIR2DS4 /// KIR3DL3 /// KIR3DL3 /// KIR3DS1 (11738374_at) / Fold change /veh KIR2DL2 /// KIR2DL4 /// KIR2DL5A /// KIR2DL5B /// KIR2DS1 /// KIR2DS2 /// KIR2DS3 /// KIR2DS4 /// KIR3DL3 /// KIR3DL3 /// KIR3DS1 (11738374_at) / RFU C1QL1 (11718748_at) / Fold change /veh C1QL1 (11718748_at) / RFU TMPRSS4 (11747572_a_at) / Fold change /veh TMPRSS4 (11747572_a_at) / RFU HAMP (11756126_x_at) / Fold change /veh HAMP (11756126_x_at) / RFU RNFT2 (11725882_a_at) / Fold change /veh RNFT2 (11725882_a_at) / RFU NR4A2 (11747474_a_at) / Fold change /veh NR4A2 (11747474_a_at) / RFU ABCC12 (11746883_a_at) / Fold change /veh ABCC12 (11746883_a_at) / RFU TMEM136 (11760407_x_at) / Fold change /veh TMEM136 (11760407_x_at) / RFU CLDN22 /// WWC2 (11732394_at) / Fold change /veh CLDN22 /// WWC2 (11732394_at) / RFU HLA-DPB1 (11760878_x_at) / Fold change /veh HLA-DPB1 (11760878_x_at) / RFU SPINT1 (11716480_a_at) / Fold change /veh SPINT1 (11716480_a_at) / RFU GAP43 (11754022_s_at) / Fold change /veh GAP43 (11754022_s_at) / RFU A4GNT (11735810_at) / Fold change /veh A4GNT (11735810_at) / RFU PRB3 (11715151_x_at) / Fold change /veh PRB3 (11715151_x_at) / RFU TUBB4B (11761932_at) / Fold change /veh TUBB4B (11761932_at) / RFU CAPN14 (11732068_a_at) / Fold change /veh CAPN14 (11732068_a_at) / RFU TMCC2 (11721928_a_at) / Fold change /veh TMCC2 (11721928_a_at) / RFU IRGQ (11745062_a_at) / Fold change /veh IRGQ (11745062_a_at) / RFU FAM174B (11720279_a_at) / Fold change /veh FAM174B (11720279_a_at) / RFU TMPRSS4 (11748680_a_at) / Fold change /veh TMPRSS4 (11748680_a_at) / RFU FAM212B (11763350_a_at) / Fold change /veh FAM212B (11763350_a_at) / RFU PLEKHG5 (11743358_a_at) / Fold change /veh PLEKHG5 (11743358_a_at) / RFU ZSCAN30 (11745921_a_at) / Fold change /veh ZSCAN30 (11745921_a_at) / RFU CMKLR1 (11741424_a_at) / Fold change /veh CMKLR1 (11741424_a_at) / RFU LOC101060620 /// MAPK8IP1 (11723275_at) / Fold change /veh LOC101060620 /// MAPK8IP1 (11723275_at) / RFU SPTSSB (11747773_x_at) / Fold change /veh SPTSSB (11747773_x_at) / RFU PRSS12 (11739890_at) / Fold change /veh PRSS12 (11739890_at) / RFU BIN1 (11741810_x_at) / Fold change /veh BIN1 (11741810_x_at) / RFU WNT11 (11732464_a_at) / Fold change /veh WNT11 (11732464_a_at) / RFU C10orf10 (11716521_a_at) / Fold change /veh C10orf10 (11716521_a_at) / RFU C5orf56 (11738089_at) / Fold change /veh C5orf56 (11738089_at) / RFU CYB561 (11721691_x_at) / Fold change /veh CYB561 (11721691_x_at) / RFU ANKRD19P (11752326_a_at) / Fold change /veh ANKRD19P (11752326_a_at) / RFU OR2T12 /// OR2T33 /// OR2T8 (11738714_s_at) / Fold change /veh OR2T12 /// OR2T33 /// OR2T8 (11738714_s_at) / RFU VCAN (11748164_a_at) / Fold change /veh VCAN (11748164_a_at) / RFU JSRP1 (11732532_at) / Fold change /veh JSRP1 (11732532_at) / RFU KRTAP10-11 (11738290_x_at) / Fold change /veh KRTAP10-11 (11738290_x_at) / RFU MYO3A (11730013_a_at) / Fold change /veh MYO3A (11730013_a_at) / RFU EBF3 (11725865_a_at) / Fold change /veh EBF3 (11725865_a_at) / RFU CAMK2N1 (11719241_x_at) / Fold change /veh CAMK2N1 (11719241_x_at) / RFU C5orf56 (11738088_a_at) / Fold change /veh C5orf56 (11738088_a_at) / RFU OLFML3 (11715873_a_at) / Fold change /veh OLFML3 (11715873_a_at) / RFU LOC100653217 /// NTM (11731650_a_at) / Fold change /veh LOC100653217 /// NTM (11731650_a_at) / RFU MAPK11 (11762145_a_at) / Fold change /veh MAPK11 (11762145_a_at) / RFU FIZ1 (11724087_x_at) / Fold change /veh FIZ1 (11724087_x_at) / RFU OASL (11726364_x_at) / Fold change /veh OASL (11726364_x_at) / RFU SOX15 (11748057_x_at) / Fold change /veh SOX15 (11748057_x_at) / RFU CD79A (11719716_a_at) / Fold change /veh CD79A (11719716_a_at) / RFU HIST1H1D (11736915_at) / Fold change /veh HIST1H1D (11736915_at) / RFU CASKIN2 (11723855_a_at) / Fold change /veh CASKIN2 (11723855_a_at) / RFU LOC730098 (11760151_x_at) / Fold change /veh LOC730098 (11760151_x_at) / RFU OR4N2 (11742367_at) / Fold change /veh OR4N2 (11742367_at) / RFU PRRT2 (11749266_a_at) / Fold change /veh PRRT2 (11749266_a_at) / RFU SNX32 (11753110_a_at) / Fold change /veh SNX32 (11753110_a_at) / RFU CDHR5 (11726645_a_at) / Fold change /veh CDHR5 (11726645_a_at) / RFU RCAN1 (11760418_a_at) / Fold change /veh RCAN1 (11760418_a_at) / RFU FAM167A (11723789_a_at) / Fold change /veh FAM167A (11723789_a_at) / RFU FAM26E (11764081_at) / Fold change /veh FAM26E (11764081_at) / RFU ISYNA1 (11749810_s_at) / Fold change /veh ISYNA1 (11749810_s_at) / RFU ACY1 (11761880_at) / Fold change /veh ACY1 (11761880_at) / RFU 11764098_at / Fold change /veh 11764098_at / RFU SAMD14 (11745864_x_at) / Fold change /veh SAMD14 (11745864_x_at) / RFU NPB (11741838_a_at) / Fold change /veh NPB (11741838_a_at) / RFU TMPRSS6 (11731388_a_at) / Fold change /veh TMPRSS6 (11731388_a_at) / RFU KRTAP10-2 (11738614_at) / Fold change /veh KRTAP10-2 (11738614_at) / RFU ARHGAP8 /// PRR5-ARHGAP8 (11727945_x_at) / Fold change /veh ARHGAP8 /// PRR5-ARHGAP8 (11727945_x_at) / RFU KRTAP5-7 /// NADSYN1 (11734609_at) / Fold change /veh KRTAP5-7 /// NADSYN1 (11734609_at) / RFU RASL12 (11751679_a_at) / Fold change /veh RASL12 (11751679_a_at) / RFU CDKN2B (11736163_a_at) / Fold change /veh CDKN2B (11736163_a_at) / RFU PRF1 (11729649_at) / Fold change /veh PRF1 (11729649_at) / RFU, ZNF638 /// ZNF638-IT1 / Fold change vs veh, ZNF638 /// ZNF638-IT1 / RFU, PANK3 / Fold change vs veh, PANK3 / RFU, SH3YL1 / Fold change vs veh, SH3YL1 / RFU, ZEB2 / Fold change vs veh, ZEB2 / RFU, NRIP1 / Fold change vs veh, NRIP1 / RFU, PTTG1IP / Fold change vs veh, PTTG1IP / RFU, CAPN2 / Fold change vs veh, CAPN2 / RFU, MED14 / Fold change vs veh, MED14 / RFU, SNORA58 / Fold change vs veh, SNORA58 / RFU, C1orf63 / Fold change vs veh, C1orf63 / RFU, LRRFIP1 / Fold change vs veh, LRRFIP1 / RFU, NDUFAF7 / Fold change vs veh, NDUFAF7 / RFU, SLC12A2 / Fold change vs veh, SLC12A2 / RFU, IBTK / Fold change vs veh, IBTK / RFU, ESF1 / Fold change vs veh, ESF1 / Fold change vs veh, TMEM50B / RFU, TAOK1 / Fold change vs veh, TAOK1 / RFU, ACBD3 / Fold change vs veh, ACBD3 / RFU, TMA16 / Fold change vs veh, TMA16 / RFU, RWDD3 / Fold change vs veh, RWDD3 / RFU, BCAT1 / Fold change vs veh, BCAT1 / RFU, EDEM3 / Fold change vs veh, EDEM3 / RFU, TMEM33 / Fold change vs veh, TMEM33 / RFU, WDR75 / Fold change vs veh, WDR75 / RFU, AHCTF1 / Fold change vs veh, AHCTF1 / RFU, TFRC / Fold change vs veh, TFRC / RFU, ZDHHC17 / Fold change vs veh, ZDHHC17 / RFU, NOM1 / Fold change vs veh, NOM1 / RFU, ARL8B / Fold change vs veh, ARL8B / RFU, ZBTB11 / Fold change vs veh, ZBTB11 / RFU, TAMM41 / Fold change vs veh, TAMM41 / RFU, KIAA1704 /// LOC100996395 / Fold change vs veh, KIAA1704 /// LOC100996395 / RFU, ING1 / Fold change vs veh, ING1 / RFU, TRMT61B / Fold change vs veh, TRMT61B / RFU, FUBP3 / Fold change vs veh, FUBP3 / RFU, TP53 / Fold change vs veh, TP53 / RFU, TNKS2 / Fold change vs veh, TNKS2 / RFU, ZFP14 / Fold change vs veh, ZFP14 / RFU, ACTR2 / Fold change vs veh, ACTR2 / RFU, PPP3R1 / Fold change vs veh, PPP3R1 / RFU, PIK3R1 / Fold change vs veh, PIK3R1 / RFU, HNRNPA1 / Fold change vs veh, HNRNPA1 / RFU, RNF170 / Fold change vs veh, RNF170 / RFU, ZNF28 / Fold change vs veh, ZNF28 / RFU, RNGTT / Fold change vs veh, RNGTT / RFU, OGT / Fold change vs veh, OGT / RFU, BRD1 / Fold change vs veh, BRD1 / RFU, MARS / Fold change vs veh, MARS / RFU, ZNF655 / Fold change vs veh, ZNF655 / RFU, FAHD1 / Fold change vs veh, FAHD1 / RFU, BDP1 / Fold change vs veh, BDP1 / RFU, LRRCC1 / Fold change vs veh, LRRCC1 / RFU, ARID1A / Fold change vs veh, ARID1A / RFU, ZNF146 / Fold change vs veh, ZNF146 / RFU, ZNF330 / Fold change vs veh, ZNF330 / RFU, GPN3 / Fold change vs veh, GPN3 / RFU, C9orf123 / Fold change vs veh, C9orf123 / RFU, N4BP2L2 / Fold change vs veh, N4BP2L2 / RFU, ARFIP1 / Fold change vs veh, ARFIP1 / RFU, FAM179B / Fold change vs veh, FAM179B / RFU, BCL10 / Fold change vs veh, BCL10 / RFU, UHRF1BP1L / Fold change vs veh, UHRF1BP1L / RFU, BET1 / Fold change vs veh, BET1 / RFU, CNOT2 / Fold change vs veh, CNOT2 / RFU, ZNF268 / Fold change vs veh, ZNF268 / Fold change vs veh, ZNF507 / RFU, DGCR2 / Fold change vs veh, DGCR2 / RFU, WDSUB1 / Fold change vs veh, WDSUB1 / Fold change vs veh, HSP90B1 /// MIR3652 / RFU, ADSS / Fold change vs veh, ADSS / RFU, GK / Fold change vs veh, GK / RFU, ZNF148 / Fold change vs veh, ZNF148 / RFU, TAF9 / Fold change vs veh, TAF9 / RFU, SLC1A5 / Fold change vs veh, SLC1A5 / RFU, SLMO2 / Fold change vs veh, SLMO2 / RFU, ABCC4 / Fold change vs veh, ABCC4 / RFU, LOC101060439 /// RAP1B / Fold change vs veh, LOC101060439 /// RAP1B / RFU, RFX7 / Fold change vs veh, RFX7 / RFU, GTPBP10 / Fold change vs veh, GTPBP10 / RFU, CNEP1R1 / Fold change vs veh, CNEP1R1 / RFU, BIVM-ERCC5 /// ERCC5 / Fold change vs veh, BIVM-ERCC5 /// ERCC5 / RFU, ILF3 / Fold change vs veh, ILF3 / RFU 11762660_at / Fold change /veh 11762660_at / RFU VCAN (11757783_s_at) / Fold change /veh VCAN (11757783_s_at) / RFU DDX43 (11728927_at) / Fold change /veh DDX43 (11728927_at) / RFU KRT8 (11758188_x_at) / Fold change /veh KRT8 (11758188_x_at) / RFU NKD1 (11759106_at) / Fold change /veh NKD1 (11759106_at) / RFU SRD5A1 (11742802_a_at) / Fold change /veh SRD5A1 (11742802_a_at) / RFU TPSAB1 /// TPSB2 (11721975_s_at) / Fold change /veh TPSAB1 /// TPSB2 (11721975_s_at) / RFU GSTM3 (11746129_a_at) / Fold change /veh GSTM3 (11746129_a_at) / RFU IL23R (11737362_x_at) / Fold change /veh IL23R (11737362_x_at) / RFU TMEM51 (11727254_a_at) / Fold change /veh TMEM51 (11727254_a_at) / RFU PIWIL2 (11732686_x_at) / Fold change /veh PIWIL2 (11732686_x_at) / RFU ORM1 (11744905_x_at) / Fold change /veh ORM1 (11744905_x_at) / RFU CCDC152 (11743942_at) / Fold change /veh CCDC152 (11743942_at) / RFU ECM1 (11717891_a_at) / Fold change /veh ECM1 (11717891_a_at) / RFU IL23R (11748794_a_at) / Fold change /veh IL23R (11748794_a_at) / RFU TNFAIP8L3 (11732012_x_at) / Fold change /veh TNFAIP8L3 (11732012_x_at) / RFU MBOAT4 (11741988_at) / Fold change /veh MBOAT4 (11741988_at) / RFU 11764193_at / Fold change /veh 11764193_at / RFU TMEM53 (11763286_at) / Fold change /veh TMEM53 (11763286_at) / RFU MAGEB2 (11727129_at) / Fold change /veh MAGEB2 (11727129_at) / RFU TMEM200A (11744735_a_at) / Fold change /veh TMEM200A (11744735_a_at) / RFU CCDC152 (11751479_a_at) / Fold change /veh CCDC152 (11751479_a_at) / RFU FAM211A (11726209_a_at) / Fold change /veh FAM211A (11726209_a_at) / RFU RGS16 (11746705_a_at) / Fold change /veh RGS16 (11746705_a_at) / RFU VCAN (11755009_s_at) / Fold change /veh VCAN (11755009_s_at) / RFU RHOB (11743442_s_at) / Fold change /veh RHOB (11743442_s_at) / RFU RGS16 (11720943_a_at) / Fold change /veh RGS16 (11720943_a_at) / RFU RGS16 (11720944_at) / Fold change /veh RGS16 (11720944_at) / RFU, VPS4B / Fold change vs veh, VPS4B / RFU, CREB1 / Fold change vs veh, CREB1 / RFU, DNAJC13 / Fold change vs veh, DNAJC13 / RFU, GNAQ / Fold change vs veh, GNAQ / RFU, CDK5R1 / Fold change vs veh, CDK5R1 / RFU, ZRANB3 / Fold change vs veh, ZRANB3 / RFU, CUL4A / Fold change vs veh, CUL4A / RFU, CCNY / Fold change vs veh, CCNY / RFU, UFL1 / Fold change vs veh, UFL1 / RFU, COG3 / Fold change vs veh, COG3 / RFU, DIAPH2 / Fold change vs veh, DIAPH2 / RFU, SKA2 / Fold change vs veh, SKA2 / RFU, AFF3 / Fold change vs veh, AFF3 / RFU, LMF1 / Fold change vs veh, LMF1 / RFU, IPO11 / Fold change vs veh, IPO11 / RFU, DFFB / Fold change vs veh, DFFB / RFU, FOXP1 / Fold change vs veh, FOXP1 / RFU, CARD8 / Fold change vs veh, CARD8 / RFU, STRN3 / Fold change vs veh, STRN3 / RFU, ADK / Fold change vs veh, ADK / RFU, RASSF2 / Fold change vs veh, RASSF2 / RFU, WIPF1 / Fold change vs veh, WIPF1 / RFU, LARP1B / Fold change vs veh, LARP1B / RFU, RASA1 / Fold change vs veh, RASA1 / RFU, RB1 / Fold change vs veh, RB1 / RFU, PPFIA1 / Fold change vs veh, PPFIA1 / RFU, MAT2A / Fold change vs veh, MAT2A / RFU, CCT5 / Fold change vs veh, CCT5 / RFU, WDR92 / Fold change vs veh, WDR92 / RFU, CUX1 / Fold change vs veh, CUX1 / RFU, TTC7A / Fold change vs veh, TTC7A / RFU, TMEM135 / Fold change vs veh, TMEM135 / RFU, DEPTOR / Fold change vs veh, DEPTOR / RFU, CPM / Fold change vs veh, CPM / RFU, DNAJB6 / Fold change vs veh, DNAJB6 / RFU, CACNA2D3 / Fold change vs veh, CACNA2D3 / RFU, DTX4 / Fold change vs veh, DTX4 / RFU, TFCP2 / Fold change vs veh, TFCP2 / RFU, GMCL1 /// GMCL1P1 / Fold change vs veh, GMCL1 /// GMCL1P1 / RFU, AEBP2 / Fold change vs veh, AEBP2 / RFU, SNHG1 /// SNORD22 /// SNORD25 /// SNORD26 /// SNORD27 /// SNORD28 /// SNORD29 /// SNORD31 / Fold change vs veh, SNHG1 /// SNORD22 /// SNORD25 /// SNORD26 /// SNORD27 /// SNORD28 /// SNORD29 /// SNORD31 / Fold change (Aza/veh), C12orf56 (ProbeSet 11735607_a_at) / Fold change (ACY-1035/veh), C12orf56 (ProbeSet 11735607_a_at) / Fold change (Aza/veh), FGFR1OP (ProbeSet 11751329_s_at) / Fold change (ACY-1035/veh), FGFR1OP (ProbeSet 11751329_s_at) / Fold change (Aza/veh), VPS36 (ProbeSet 11739960_a_at) / Fold change (ACY-1035/veh), VPS36 (ProbeSet 11739960_a_at) / RFU SYPL1 (11715823_x_at) / Fold change /veh SYPL1 (11715823_x_at) / RFU IGFBP7 (11715501_s_at) / Fold change /veh IGFBP7 (11715501_s_at) / RFU REEP3 (11722064_at) / Fold change /veh REEP3 (11722064_at) / RFU IGLL1 (11728026_x_at) / Fold change /veh IGLL1 (11728026_x_at): dose or concentration left out as unconfirmed
Settings: MV-4-11 cells, 48 hours

Question: Which “RFU MBOAT4 (11741988_at)” value does the source give for `Nc1ccc(-c2cccs2)cc1NC(=O)c1ccc2c(c1)cc(C1CC1)n2CCN1CCOCC1` [ACY-1035] here?
Answer: The value was 8.81 RFU.
